{"source": "patent US20250134883A1", "about": "“NOVEL COMPOSITIONS” (TULEX PHARMACEUTICALS INC., priority 2022, published 2025)", "origin": "cited, not measured here", "settings": "high dose naltrexone (0.5, 1.0 and 2.0 mg/kg)"}
{"smiles": "O=C1CC[C@@]2(O)[C@H]3Cc4ccc(O)c5c4[C@@]2(CCN3CC2CC2)[C@H]1O5", "note": "[naltrexone, Naltrexone]", "values": [{"measurement": "effect on autistic behavior and gaze aversion", "value": "reverse autistic behavior and gaze aversion"}]}
